Data as given in US10792272B2, “Methods for treatment of Clostridium difficile infections” (priority 2016, dated 2020).
≈ marks a conversion by molar mass, not a printed value.

Experiments:
[1] = system: C. difficile 630 (CD630, ATCC BAA-1382); experiment: MIC by broth microdilution against C. difficile 630; type: cell-based, Clostridium difficile; conditions: Table 1; strain 630; 20-24 h, 37° C.
[2] = system: C. difficile 4118 (CD4118, ATCC BAA-1870, BI/NAP1/027); experiment: MIC by broth microdilution against C. difficile 4118; type: cell-based, Clostridium difficile; conditions: Table 1; strain 4118; 20-24 h, 37° C.
[3] = system: C. difficile strains 630 (CD630) and 4118 (CD4118); experiment: MIC / growth inhibition against C. difficile, covering both strains; type: cell-based, Clostridium difficile; conditions: CD630 and CD4118
B. subtilis ATCC 6051 = experiment: MIC against aerobic bacteria; type: cell-based, Bacillus subtilis; conditions: aerobic
S. aureus RN4220 = experiment: MIC against aerobic bacteria; type: cell-based; conditions: aerobic
S. epidermidis 1457 = experiment: MIC against aerobic bacteria; type: cell-based; conditions: aerobic
A. baumannii M2 = experiment: MIC against aerobic bacteria; type: cell-based; conditions: aerobic
P. aeruginosa PAO1 = experiment: MIC against aerobic bacteria; type: cell-based, Pseudomonas aeruginosa; conditions: aerobic
C. sporogenes ATCC 15579 = experiment: microbe, parasite or virus in culture; type: cell-based, Clostridium sporogenes
[4] = system: C. clostridioforme ATCC 25537; experiment: MIC against anaerobic bacteria; type: cell-based, Clostridium clostridioforme; conditions: anaerobic
[5] = system: B. thetaiotaomicron ATCC 29148; experiment: microbe, parasite or virus in culture; type: cell-based; conditions: anaerobic
P. distasonis ATCC 8503 = experiment: MIC against anaerobic bacteria; type: cell-based, Parabacteroides distasonis; conditions: anaerobic
P. nigrescens ATCC 33563 = experiment: MIC against anaerobic bacteria; type: cell-based, Prevotella nigrescens; conditions: anaerobic
[6] = system: panel of aerobic and anaerobic organisms; type: cell-based

For O=C(Nc1ccc(Oc2ccccc2)cc1)c1cc(I)cc(I)c1O [Compound 5a], the “MIC C. difficile 630” value [1] was 0.5 µg/mL (≈ 0.897 µM), the “MIC C. difficile 4118” value [2] was 1 µg/mL (≈ 1.79 µM) and the “growth inhibitory activity against CD630 and CD4118 (in words)” value (shortened to “growth inhibitory activity”) [3] was “high in vitro potency”.
COc1c(I)cc(I)cc1C(=O)Nc1ccc(Oc2ccccc2)cc1 [Compound 5b] was tested, and the “MIC C. difficile 630” value [1] was greater than 32 µg/mL, the “MIC C. difficile 4118” value [2] was greater than 32 µg/mL and the “growth inhibitory activity” value [3] was “inactive”.
In the case of O=C(Nc1ccc(Oc2ccccc2)cc1)c1cc(I)cc(I)c1 [Compound 5c], the “MIC C. difficile 630” value [1] is reported as greater than 32 µg/mL, the “MIC C. difficile 4118” value [2] is reported as greater than 32 µg/mL and the “growth inhibitory activity” value [3] is reported as “inactive”.
In the case of CN(C(=O)c1cc(I)cc(I)c1O)c1ccc(Oc2ccccc2)cc1 [Compound 5d], the “MIC C. difficile 630” value [1] is reported as greater than 32 µg/mL, the “MIC C. difficile 4118” value [2] is reported as greater than 32 µg/mL and the “growth inhibitory activity” value [3] is reported as “inactive”.
O=C(Nc1ccc(Oc2ccc(F)cc2)cc1)c1cc(I)cc(I)c1O [Compound 5e] was tested, and the “MIC C. difficile 630” value [1] was 0.13 µg/mL (≈ 0.226 µM), the “MIC C. difficile 4118” value [2] was 0.13 µg/mL (≈ 0.226 µM) and the “growth inhibitory activity” value [3] was “high in vitro potency”.
For Cc1ccc(Oc2ccc(NC(=O)c3cc(I)cc(I)c3O)cc2)cc1 [Compound 5f], the “MIC C. difficile 630” value [1] was 0.13 µg/mL (≈ 0.228 µM), the “MIC C. difficile 4118” value [2] was 0.25 µg/mL (≈ 0.438 µM) and the “growth inhibitory activity” value [3] was “high in vitro potency”.
With O=C(Nc1ccc(Oc2ccc(Cl)cc2)cc1)c1cc(I)cc(I)c1O [Compound 5g] the “MIC C. difficile 630” value [1] was 0.13 µg/mL (≈ 0.22 µM), the “MIC C. difficile 4118” value [2] was 0.25 µg/mL (≈ 0.423 µM) and the “growth inhibitory activity” value [3] was “high in vitro potency”.
In the case of COc1c(I)cc(I)cc1C(=O)Nc1ccc(Oc2ccc(Cl)cc2)cc1 [Compound 5h], the “MIC C. difficile 630” value [1] is reported as greater than 32 µg/mL, the “MIC C. difficile 4118” value [2] is reported as greater than 32 µg/mL and the “growth inhibitory activity” value [3] is reported as “inactive”.
O=C(Nc1ccc(Oc2ccc(Cl)cc2)cc1)c1cc(I)cc(I)c1 [Compound 5i] was tested, and the “MIC C. difficile 630” value [1] was greater than 32 µg/mL, the “MIC C. difficile 4118” value [2] was greater than 32 µg/mL and the “MIC B. subtilis ATCC 6051” value (B. subtilis ATCC 6051) was greater than 32 µg/mL. For the same compound, the “MIC S. aureus RN4220” value (S. aureus RN4220) was greater than 32 µg/mL, the “MIC S. epidermidis 1457” value (S. epidermidis 1457) was greater than 32 µg/mL and the “MIC A. baumannii M2” value (A. baumannii M2) was greater than 32 µg/mL. For the same compound, the “MIC P. aeruginosa PAO1” value (P. aeruginosa PAO1) was greater than 32 µg/mL, the “MIC C. sporogenes ATCC 15579” value (C. sporogenes ATCC 15579) was greater than 32 µg/mL and the “MIC C. clostridioforme ATCC 25537” value [4] was greater than 32 µg/mL. For the same compound, the “MIC B. thetaiotaomicron ATCC 29148” value [5] was greater than 32 µg/mL, the “MIC P. distasonis ATCC 8503” value (P. distasonis ATCC 8503) was greater than 32 µg/mL and the “MIC P. nigrescens ATCC 33563” value (P. nigrescens ATCC 33563) was greater than 32 µg/mL. For the same compound, the “growth inhibitory activity” value [3] was “inactive” and the “antibacterial spectrum (in words)” value [6] was “lacked antibacterial activity”.
O=C(Nc1ccc2ccccc2c1)c1cc(I)cc(I)c1O [Compound 6a] was tested, and the “MIC C. difficile 630” value [1] was 0.5 µg/mL (≈ 0.971 µM), the “MIC C. difficile 4118” value [2] was 0.5 µg/mL (≈ 0.971 µM) and the “MIC B. subtilis ATCC 6051” value (B. subtilis ATCC 6051) was 0.06 µg/mL (≈ 0.116 µM). The “MIC S. aureus RN4220” value (S. aureus RN4220) was 0.25 µg/mL (≈ 0.485 µM), the “MIC S. epidermidis 1457” value (S. epidermidis 1457) was 0.06 µg/mL (≈ 0.116 µM) and the “MIC A. baumannii M2” value (A. baumannii M2) was greater than 32 µg/mL. The “MIC P. aeruginosa PAO1” value (P. aeruginosa PAO1) was greater than 32 µg/mL, the “MIC C. sporogenes ATCC 15579” value (C. sporogenes ATCC 15579) was 8 µg/mL (≈ 15.5 µM) and the “MIC C. clostridioforme ATCC 25537” value [4] was 4 µg/mL (≈ 7.77 µM). For the same compound, the “MIC B. thetaiotaomicron ATCC 29148” value [5] was greater than 32 µg/mL, the “MIC P. distasonis ATCC 8503” value (P. distasonis ATCC 8503) was 16 µg/mL (≈ 31.1 µM) and the “MIC P. nigrescens ATCC 33563” value (P. nigrescens ATCC 33563) was 8 µg/mL (≈ 15.5 µM). The “growth inhibitory activity” value [3] was “high in vitro potency”.
